# Results reported in patent US20130012432A1, “Peptides for Treatment of Obesity” (Novo Nordisk A/S, priority 2010, published 2013).
# Positions of bridges follow the written chain, without caps; N, C: chain ends. Non-standard residues stand in square brackets, D forms with d. Residues, ends and D or L forms follow the SMILES beside them. Groups on a side chain read outwards from the residue. *: point of attachment. Palmitoyl(16-(5-tetrazolyl)) = O=C(CCCCCCCCCCCCCCCc1nnn[nH]1)*; Lys(CH2CO2H)2 = N[C@@H](CCCCN(CC(=O)O)CC(=O)O)C(=O)O; C16 diacid = O=C(O)CCCCCCCCCCCCCCC(=O)*; Orn = NCCC[C@H](N)C(=O)O; Dab = NCC[C@H](N)C(=O)O; AEEA = NCCOCCOCC(=O)O
# Experiment: physchem
# Procedure: From a stock solution in vehicle, either H2O or 10 mM phosphate, containing 1 mg (as weighed) compound per ml, 8-11 aliquots are withdrawn and pH-adjusted individually with HCl/NaOH, to cover the whole pH range.
Structure (SMILES),"solubility (pH 6.7, Solubility Conc.)","solubility (pH 7.1, Solubility Conc.)","solubility (pH 7.3, Solubility Conc.)","solubility (pH 7.4, Solubility Conc.)","solubility (pH 7.5, Solubility Conc.)","solubility (pH 7.6, Solubility Conc.)","solubility (pH 7.8, Solubility Conc.)","solubility (pH 8, Solubility Conc.)","solubility (pH 5.8, Solubility Conc.)","solubility (pH 6.9, Solubility Conc.)","solubility (pH 7.2, Solubility Conc.)","solubility (pH 5.3, Solubility Conc.)","solubility (pH 6.1, Solubility Conc.)","solubility (pH 6.4, Solubility Conc.)","solubility (pH 6.5, Solubility Conc.)","solubility (pH 6.8, Solubility Conc.)","solubility (pH 7.7, Solubility Conc.)","solubility (pH 7.9, Solubility Conc.)","solubility (pH 6.3, Solubility Conc.)"
"CC(=O)N[C@H]1CCC(=O)NCC[C@@H](C(=O)N2CCC[C@H]2C(=O)N2CCC[C@H]2C(=O)N[C@@H](CCCNC(=N)N)C(=O)N[C@@H](CC(=O)O)C(=O)N[C@@H](CCCCN(CC(=O)O)CC(=O)O)C(=O)N[C@@H](CCCCNC(=O)COCCOCCNC(=O)CCCCCCCCCCCCCCCc2nnn[nH]2)C(N)=O)NC(=O)[C@H](Cc2c[nH]c3ccccc23)NC(=O)[C@H](CCCNC(=N)N)NC(=O)[C@@H](Cc2ccccc2)NC(=O)[C@H](Cc2c[nH]cn2)NC1=O [Example 16, Ac-c[Glu-His-D-Phe-Arg-Trp-Dab]-Pro-Pro-Arg-Asp-Lys(biscarboxymethyl)-Lys[(2-{2-[16-(tetrazol-5-yl)hexadecanoylamino]ethoxy}ethoxy)acetyl]-NH2] (Ac-EH[dF]RW[Dab]PPRD[Lys(CH2CO2H)2]K([AEEA-Palmitoyl(16-(5-tetrazolyl))])-NH2; lactam 1-6)",42 µM,96 µM,191 µM,262 µM,357 µM,431 µM,409 µM,447 µM,,,,,,,,,,,
"CC(=O)N[C@H]1CCCNC(=O)C[C@@H](C(=O)N2CCC[C@H]2C(=O)N2CCC[C@H]2C(=O)N[C@@H](CCCNC(=N)N)C(=O)N[C@@H](CC(=O)O)C(=O)N[C@@H](CCCCN(CC(=O)O)CC(=O)O)C(=O)N[C@@H](CCCCNC(=O)COCCOCCNC(=O)CCCCCCCCCCCCCCCc2nnn[nH]2)C(N)=O)NC(=O)[C@H](Cc2c[nH]c3ccccc23)NC(=O)[C@H](CCCNC(=N)N)NC(=O)[C@@H](Cc2ccccc2)NC(=O)[C@H](Cc2c[nH]cn2)NC1=O [Example 17, Ac-c[Orn-His-D-Phe-Arg-Trp-Asp]-Pro-Pro-Arg-Asp-Lys(biscarboxymethyl)-Lys[(2-{2-[16-(tetrazol-5-yl)hexadecanoylamino]ethoxy}ethoxy)acetyl]-NH2] (Ac-[Orn]H[dF]RWDPPRD[Lys(CH2CO2H)2]K([AEEA-Palmitoyl(16-(5-tetrazolyl))])-NH2; lactam 1-6)",45 µM,,428 µM,490 µM,,,470 µM,487 µM,25 µM,75 µM,297 µM,,,,,,,,
"CC(=O)N[C@H]1CCC(=O)NCCC[C@@H](C(=O)N2CCC[C@H]2C(=O)N2CCC[C@H]2C(=O)N[C@@H](CCCNC(=N)N)C(=O)N[C@@H](CC(=O)O)C(=O)N[C@@H](CCCCN(CC(=O)O)CC(=O)O)C(=O)N[C@@H](CCCCNC(=O)COCCOCCNC(=O)CCCCCCCCCCCCCCC(=O)O)C(N)=O)NC(=O)[C@H](Cc2c[nH]c3ccccc23)NC(=O)[C@H](CCCNC(=N)N)NC(=O)[C@@H](Cc2ccccc2)NC(=O)[C@H](Cc2cnc[nH]2)NC1=O [Example 18, Ac-c[Glu-His-D-Phe-Arg-Trp-Orn]-Pro-Pro-Arg-Asp-Lys(biscarboxymethyl)-Lys({2-[2-(15-carboxypentadecanoylamino)ethoxy]ethoxy}acetyl)-NH2] (Ac-EH[dF]RW[Orn]PPRD[Lys(CH2CO2H)2]K([AEEA-C16 diacid])-NH2; lactam 1-6)",,484 µM,,449 µM,,,,,,,,193 µM,310 µM,326 µM,392 µM,447 µM,451 µM,474 µM,
"CC(=O)N[C@H]1CCCNC(=O)C[C@@H](C(=O)N2CCC[C@H]2C(=O)N2CCC[C@H]2C(=O)N[C@@H](CCCNC(=N)N)C(=O)N[C@@H](CCC(=O)O)C(=O)N[C@@H](CCCCN(CC(=O)O)CC(=O)O)C(=O)N[C@@H](CCCCNC(=O)COCCOCCNC(=O)CCCCCCCCCCCCCCCc2nnn[nH]2)C(N)=O)NC(=O)[C@H](Cc2c[nH]c3ccccc23)NC(=O)[C@H](CCCNC(=N)N)NC(=O)[C@@H](Cc2ccccc2)NC(=O)[C@H](Cc2c[nH]cn2)NC1=O [Example 19, Ac-c[Orn-His-D-Phe-Arg-Trp-Asp]-Pro-Pro-Arg-Glu-Lys(biscarboxymethyl)-Lys[(2-{2-[16-(tetrazol-5-yl)hexadecanoylamino]ethoxy}ethoxy)acetyl]-NH2] (Ac-[Orn]H[dF]RWDPPRE[Lys(CH2CO2H)2]K([AEEA-Palmitoyl(16-(5-tetrazolyl))])-NH2; lactam 1-6)",38 µM,,447 µM,,474 µM,,,,,70 µM,433 µM,,,,,,517 µM,441 µM,26 µM
